Where a name gives a salt, the structure may show the parent alone. Bounds are passed on as bounds.

Sequence of recombinant human PARP1 (P09874 whole entry): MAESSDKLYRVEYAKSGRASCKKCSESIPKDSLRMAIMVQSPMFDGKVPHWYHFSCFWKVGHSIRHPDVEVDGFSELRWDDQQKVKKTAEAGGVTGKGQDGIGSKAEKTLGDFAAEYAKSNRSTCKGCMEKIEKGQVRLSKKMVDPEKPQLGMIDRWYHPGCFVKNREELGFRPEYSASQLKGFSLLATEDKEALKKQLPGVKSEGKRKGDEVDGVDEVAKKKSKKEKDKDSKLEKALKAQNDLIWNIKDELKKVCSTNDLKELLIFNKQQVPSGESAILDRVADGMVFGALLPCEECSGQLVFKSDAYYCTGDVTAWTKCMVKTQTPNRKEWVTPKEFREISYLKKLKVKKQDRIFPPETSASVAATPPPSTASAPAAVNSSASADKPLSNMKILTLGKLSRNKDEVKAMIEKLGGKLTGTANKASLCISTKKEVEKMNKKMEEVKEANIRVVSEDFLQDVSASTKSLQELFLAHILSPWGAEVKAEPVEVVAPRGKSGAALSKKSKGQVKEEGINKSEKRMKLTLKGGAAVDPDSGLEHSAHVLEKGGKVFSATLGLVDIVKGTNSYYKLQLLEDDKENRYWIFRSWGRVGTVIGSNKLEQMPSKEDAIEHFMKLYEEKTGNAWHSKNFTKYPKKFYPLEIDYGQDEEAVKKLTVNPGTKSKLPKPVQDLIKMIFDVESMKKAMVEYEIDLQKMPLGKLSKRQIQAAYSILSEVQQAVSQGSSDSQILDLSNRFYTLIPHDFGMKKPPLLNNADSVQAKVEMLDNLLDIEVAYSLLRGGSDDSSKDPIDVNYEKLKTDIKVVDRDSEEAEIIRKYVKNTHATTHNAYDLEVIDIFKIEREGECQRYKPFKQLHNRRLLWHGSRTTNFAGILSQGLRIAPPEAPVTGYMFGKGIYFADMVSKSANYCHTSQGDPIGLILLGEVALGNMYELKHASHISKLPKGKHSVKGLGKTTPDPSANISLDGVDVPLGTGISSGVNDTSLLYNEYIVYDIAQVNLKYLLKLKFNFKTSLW

The target of the experiment is recombinant human PARP1 (Homo sapiens, UniProt P09874). Description: PARP1 fluorescence polarization binding assay. Particulars: binding IC50, GST-tagged PARP1 20 nM, PARPi-FL probe 3 nM, 4 h at RT. As to the method:
In some embodiments, the biological assay is described in the Examples herein. In some embodiments, the biological assay measures PARP-1 binding by way of fluorescence polarization measurements. In some embodiments, binding of a test compound to recombinant human PARP-1 reduces the amount of binding of a fluorescent probe, and consequently reduces the detected level of fluorescence polarization. In some test compound stock solutions are prepared in a solvent, e.g., DMSO, and are serially diluted into a range of concentrations, e.g., 15 concentrations, 14 concentrations, 13 concentrations, 12 concentrations, 11 concentrations, 10 concentrations, 9 concentrations, 8 concentrations, 7 concentrations, 6 concentrations, or 5 concentrations, by a dilution factor, e.g., a 10-fold dilution factor, a 9-fold dilution factor, an 8-fold dilution factor, a 7-fold dilution factor, a 6-fold dilution factor, a 5-fold dilution factor, a 4-fold dilution factor, a 3-fold dilution factor, or a 2-fold dilution factor. In some embodiments, the serial dilutions, e.g., 100 nL of serial dilution, 90 nL of serial dilution, 80 nL of serial dilution, 70 nL of serial dilution, 60 nL of serial dilution, 50 nL of serial dilution, 30 nL of serial dilution, 20 nL of serial dilution, or 10 nL of serial dilution, are added to a multi-welled plate, e.g., a 1536-well plate, a 384-well plate, or a 96-well plate. In some embodiments, PARP-1, e.g., GST-tagged PARP-1, is diluted in assay buffer, e.g., 50 μL of assay buffer, 40 μL of assay buffer, e.g., 30 μL of assay buffer, 20 μL of assay buffer, 10 μL of assay buffer, or 5 μL of assay buffer, and is added to the plate. In some embodiments, the plate is centrifuged, e.g., at 1000 rpm for 1 min, and incubated, e.g., incubated for 30 minutes at room temperature (RT). In some embodiments, a fluorescent probe, e.g., 10 μL of 6 nM PARPi-FL (TOCRIS, Cat #6461), is diluted in an assay buffer and is added to the plate. In some embodiments, the final concentrations of PARP-1 and fluorescent probe are 20 nM and 3 nM, respectively, in a total volume of 20 μL. In some embodiments, the plate is centrifuged, e.g., at 1000 rpm for 1 minute, and the assay plate is incubated, e.g., for 4 h at RT. In some embodiments, the samples in each well are read using a plate reader, e.g., an Envision instrument using excitation=480 nm, and emission wavelength=FITC FP-P pol 535 nm & FITC FP-S pol 535 nm). In some embodiments, percent inhibition is calculated from mP values using Inhibition (%)=[1−(mPc−mPL)/(mPH−mPL)]×100%, where mPc, mPL, and mPH are the mP values of test compound, Low controls, and High controls, respectively. In some embodiments, binding IC50 values are calculated using XLFit (equation 201: y=A+((B−A)/(1+((x/C)^D))), where A=bottom, B=top, C=IC50, and D=slope) with a floating top and bottom for curves.
Compounds of the present disclosure were tested in a PARP1 fluorescence polarization binding assay at Pharmaron (Beijing, P.R. China). In this biochemical assay, binding of test compound to recombinant human PARP1 reduces the amount of binding of a fluorescent probe, and consequently reduces the detected level of fluorescence polarization. Test compound stock solutions were prepared in DMSO and then serially diluted into 10 concentrations by 3-fold dilution in a 384-well plate using a TECAN EVO200. 60 nL of each dilution was transferred to the plate using an Echo550 (Labcyte), and then 10 μL 40 nM GST-tagged PARP1 (BPS Bioscience, Cat #80501), diluted in assay buffer (50 mM Tris pH 8.0, 0.001% Triton X-100, 10 mM MgCl2, 150 mM NaCl), was added to the plate. After a centrifugation at 1000 rpm for 1 min, the assay plate was incubated for 30 min at RT. 10 μL 6 nM PARPi-FL (TOCRIS, Cat #6461), diluted using assay buffer, was then added to the plate. The final concentrations of PARP1 and PARPi-FL were 20 nM and 3 nM, respectively, in a total volume of 20 μL. […]
A general note: Polarisation of emitted light reports the rotation of a fluorescent probe.
As usually defined, the IC50 is the point on the concentration scale where inhibition reaches its midpoint. As to `CCc1cc2ncc(CN3CC4(C3)CN(c3ccc(C(=O)NC)nc3)C4)cc2[nH]c1=O` [Compound No. 9, 5-(6-((7-ethyl-6-oxo-5,6-dihydro-1,5-naphthyridin-3-yl)methyl)-2,6-diazaspiro[3.3]heptan-2-yl)-N-methylpicolinamide formate], the 50% inhibitory concentration (IC50) was < 100 nM.
As to `CCc1cc2ncc(CN3CCCN(c4ccc(C(=O)NC)nc4)CC3)cc2[nH]c1=O` [Compound No. 6, 5-(4-((7-ethyl-6-oxo-5H-1,5-naphthyridin-3-yl)methyl)-1,4-diazepan-1-yl)-N-methylpyridine-2-carboxamide], the IC50 is < 100 nM.
For `CCc1cc2ncc(CNC3CC(Nc4ccc(C(=O)NC)nc4)C3)cc2[nH]c1=O` (stereo not shown) [Compound No. 29, 5-((3-(((7-ethyl-6-oxo-5,6-dihydro-1,5-naphthyridin-3-yl)methyl)amino)cyclobutyl)amino)-N-methylpicolinamide], the IC50 fell in the range of 100 to 3000 nM.
Consider `CCc1cc2ncc(CN3CC4CN(c5ccc(C(=O)NC)nc5)CC4C3)cc2[nH]c1=O` (stereo not shown) [Compound No. 7, 5-(5-((7-ethyl-6-oxo-5,6-dihydro-1,5-naphthyridin-3-yl)methyl)hexahydropyrrolo[3,4-c]pyrrol-2(1H)-yl)-N-methylpicolinamide], for which the half-inhibitory concentration (IC50) fell in the range of 100 to 3000 nM.

These data come from patent publication US20240132522A1, “HETEROCYCLIC COMPOUNDS AND METHODS OF USE THEREOF” (1cBio, Inc., priority 2022, published 2024).
